Reference: the NIST ThermoML archive (doi:10.1021/je800224k)

CCn1cc[n+](C)c1.F[P-](F)(F)(F)(F)F [1-ethyl-3-methylimidazolium hexafluorophosphate]
Details	mass density [kg/m3]
312.8 K, 10000 kPa, Crystal, Bellows volumetry	1562
312.8 K, 20000 kPa, Crystal, Bellows volumetry	1565
312.8 K, 30000 kPa, Crystal, Bellows volumetry	1569
312.8 K, 40000 kPa, Crystal, Bellows volumetry	1572
312.8 K, 50000 kPa, Crystal, Bellows volumetry	1576
312.8 K, 60000 kPa, Crystal, Bellows volumetry	1579
312.8 K, 70000 kPa, Crystal, Bellows volumetry	1582
312.8 K, 80000 kPa, Crystal, Bellows volumetry	1585
312.8 K, 90000 kPa, Crystal, Bellows volumetry	1588
312.8 K, 100000 kPa, Crystal, Bellows volumetry	1591
312.8 K, 110000 kPa, Crystal, Bellows volumetry	1594
312.8 K, 120000 kPa, Crystal, Bellows volumetry	1597
312.8 K, 130000 kPa, Crystal, Bellows volumetry	1600
312.8 K, 140000 kPa, Crystal, Bellows volumetry	1603
312.8 K, 150000 kPa, Crystal, Bellows volumetry	1606
312.8 K, 160000 kPa, Crystal, Bellows volumetry	1609
312.8 K, 170000 kPa, Crystal, Bellows volumetry	1612
312.8 K, 180000 kPa, Crystal, Bellows volumetry	1615
312.8 K, 190000 kPa, Crystal, Bellows volumetry	1617
312.8 K, 200000 kPa, Crystal, Bellows volumetry	1620
332.7 K, 10000 kPa, Crystal, Bellows volumetry	1546
332.7 K, 20000 kPa, Crystal, Bellows volumetry	1550
332.7 K, 30000 kPa, Crystal, Bellows volumetry	1554
332.7 K, 40000 kPa, Crystal, Bellows volumetry	1557
332.7 K, 50000 kPa, Crystal, Bellows volumetry	1561
332.7 K, 60000 kPa, Crystal, Bellows volumetry	1564
332.7 K, 70000 kPa, Crystal, Bellows volumetry	1567
332.7 K, 80000 kPa, Crystal, Bellows volumetry	1571
332.7 K, 90000 kPa, Crystal, Bellows volumetry	1574
332.7 K, 100000 kPa, Crystal, Bellows volumetry	1577
332.7 K, 110000 kPa, Crystal, Bellows volumetry	1581
332.7 K, 120000 kPa, Crystal, Bellows volumetry	1584
332.7 K, 130000 kPa, Crystal, Bellows volumetry	1587
332.7 K, 140000 kPa, Crystal, Bellows volumetry	1590
332.7 K, 150000 kPa, Crystal, Bellows volumetry	1593
332.7 K, 160000 kPa, Crystal, Bellows volumetry	1596
332.7 K, 170000 kPa, Crystal, Bellows volumetry	1599
332.7 K, 180000 kPa, Crystal, Bellows volumetry	1602
332.7 K, 190000 kPa, Crystal, Bellows volumetry	1605
332.7 K, 200000 kPa, Crystal, Bellows volumetry	1608
352.7 K, 10000 kPa, Liquid, Bellows volumetry	1428
352.7 K, 20000 kPa, Liquid, Bellows volumetry	1434
352.7 K, 30000 kPa, Liquid, Bellows volumetry	1440
352.7 K, 40000 kPa, Liquid, Bellows volumetry	1446
352.7 K, 50000 kPa, Liquid, Bellows volumetry	1451
352.7 K, 60000 kPa, Liquid, Bellows volumetry	1456
352.7 K, 70000 kPa, Liquid, Bellows volumetry	1461
352.7 K, 80000 kPa, Liquid, Bellows volumetry	1466
352.7 K, 90000 kPa, Liquid, Bellows volumetry	1471
352.7 K, 100000 kPa, Crystal, Bellows volumetry	1562
352.7 K, 110000 kPa, Crystal, Bellows volumetry	1566
352.7 K, 120000 kPa, Crystal, Bellows volumetry	1570
352.7 K, 130000 kPa, Crystal, Bellows volumetry	1573
352.7 K, 140000 kPa, Crystal, Bellows volumetry	1576
352.7 K, 150000 kPa, Crystal, Bellows volumetry	1580
352.7 K, 160000 kPa, Crystal, Bellows volumetry	1583
352.7 K, 170000 kPa, Crystal, Bellows volumetry	1586
352.7 K, 180000 kPa, Crystal, Bellows volumetry	1589
352.7 K, 190000 kPa, Crystal, Bellows volumetry	1592
352.7 K, 200000 kPa, Crystal, Bellows volumetry	1595
353.15 K, 101.33 kPa, Liquid, Vibrating tube method	1421.8
372.8 K, 10000 kPa, Liquid, Bellows volumetry	1410
372.8 K, 20000 kPa, Liquid, Bellows volumetry	1416
372.8 K, 30000 kPa, Liquid, Bellows volumetry	1423
372.8 K, 40000 kPa, Liquid, Bellows volumetry	1428
372.8 K, 50000 kPa, Liquid, Bellows volumetry	1434
372.8 K, 60000 kPa, Liquid, Bellows volumetry	1439
372.8 K, 70000 kPa, Liquid, Bellows volumetry	1445
372.8 K, 80000 kPa, Liquid, Bellows volumetry	1450
372.8 K, 90000 kPa, Liquid, Bellows volumetry	1455
372.8 K, 100000 kPa, Liquid, Bellows volumetry	1460
372.8 K, 110000 kPa, Liquid, Bellows volumetry	1465
372.8 K, 120000 kPa, Liquid, Bellows volumetry	1470
372.8 K, 130000 kPa, Liquid, Bellows volumetry	1474
372.8 K, 140000 kPa, Liquid, Bellows volumetry	1479
372.8 K, 150000 kPa, Liquid, Bellows volumetry	1483
372.8 K, 160000 kPa, Liquid, Bellows volumetry	1488
372.8 K, 170000 kPa, Liquid, Bellows volumetry	1492
372.8 K, 180000 kPa, Liquid, Bellows volumetry	1497
372.8 K, 190000 kPa, Liquid, Bellows volumetry	1501
372.8 K, 200000 kPa, Liquid, Bellows volumetry	1505
373.15 K, 101.33 kPa, Liquid, Vibrating tube method	1404.9
392.9 K, 10000 kPa, Liquid, Bellows volumetry	1393
392.9 K, 20000 kPa, Liquid, Bellows volumetry	1400
392.9 K, 30000 kPa, Liquid, Bellows volumetry	1406
392.9 K, 40000 kPa, Liquid, Bellows volumetry	1412
392.9 K, 50000 kPa, Liquid, Bellows volumetry	1418
392.9 K, 60000 kPa, Liquid, Bellows volumetry	1424
392.9 K, 70000 kPa, Liquid, Bellows volumetry	1429
392.9 K, 80000 kPa, Liquid, Bellows volumetry	1435
392.9 K, 90000 kPa, Liquid, Bellows volumetry	1440
392.9 K, 100000 kPa, Liquid, Bellows volumetry	1445
392.9 K, 110000 kPa, Liquid, Bellows volumetry	1450
392.9 K, 120000 kPa, Liquid, Bellows volumetry	1455
392.9 K, 130000 kPa, Liquid, Bellows volumetry	1460
392.9 K, 140000 kPa, Liquid, Bellows volumetry	1464
392.9 K, 150000 kPa, Liquid, Bellows volumetry	1469
392.9 K, 160000 kPa, Liquid, Bellows volumetry	1474
392.9 K, 170000 kPa, Liquid, Bellows volumetry	1478
392.9 K, 180000 kPa, Liquid, Bellows volumetry	1483
392.9 K, 190000 kPa, Liquid, Bellows volumetry	1487
392.9 K, 200000 kPa, Liquid, Bellows volumetry	1491
412.9 K, 10000 kPa, Liquid, Bellows volumetry	1377
412.9 K, 20000 kPa, Liquid, Bellows volumetry	1384
412.9 K, 30000 kPa, Liquid, Bellows volumetry	1390
412.9 K, 40000 kPa, Liquid, Bellows volumetry	1397
412.9 K, 50000 kPa, Liquid, Bellows volumetry	1403
412.9 K, 60000 kPa, Liquid, Bellows volumetry	1408
412.9 K, 70000 kPa, Liquid, Bellows volumetry	1414
412.9 K, 80000 kPa, Liquid, Bellows volumetry	1420
412.9 K, 90000 kPa, Liquid, Bellows volumetry	1425
412.9 K, 100000 kPa, Liquid, Bellows volumetry	1431
412.9 K, 110000 kPa, Liquid, Bellows volumetry	1436
412.9 K, 120000 kPa, Liquid, Bellows volumetry	1441
412.9 K, 130000 kPa, Liquid, Bellows volumetry	1446
412.9 K, 140000 kPa, Liquid, Bellows volumetry	1451
412.9 K, 150000 kPa, Liquid, Bellows volumetry	1456
412.9 K, 160000 kPa, Liquid, Bellows volumetry	1460
412.9 K, 170000 kPa, Liquid, Bellows volumetry	1465
412.9 K, 180000 kPa, Liquid, Bellows volumetry	1469
412.9 K, 190000 kPa, Liquid, Bellows volumetry	1474
412.9 K, 200000 kPa, Liquid, Bellows volumetry	1478
432.6 K, 10000 kPa, Liquid, Bellows volumetry	1360
432.6 K, 20000 kPa, Liquid, Bellows volumetry	1367
432.6 K, 30000 kPa, Liquid, Bellows volumetry	1374
432.6 K, 40000 kPa, Liquid, Bellows volumetry	1381
432.6 K, 50000 kPa, Liquid, Bellows volumetry	1387
432.6 K, 60000 kPa, Liquid, Bellows volumetry	1393
432.6 K, 70000 kPa, Liquid, Bellows volumetry	1399
432.6 K, 80000 kPa, Liquid, Bellows volumetry	1405
432.6 K, 90000 kPa, Liquid, Bellows volumetry	1411
432.6 K, 100000 kPa, Liquid, Bellows volumetry	1417
432.6 K, 110000 kPa, Liquid, Bellows volumetry	1422
432.6 K, 120000 kPa, Liquid, Bellows volumetry	1427
432.6 K, 130000 kPa, Liquid, Bellows volumetry	1432
432.6 K, 140000 kPa, Liquid, Bellows volumetry	1437
432.6 K, 150000 kPa, Liquid, Bellows volumetry	1442
432.6 K, 160000 kPa, Liquid, Bellows volumetry	1447
432.6 K, 170000 kPa, Liquid, Bellows volumetry	1451
432.6 K, 180000 kPa, Liquid, Bellows volumetry	1456
432.6 K, 190000 kPa, Liquid, Bellows volumetry	1461
432.6 K, 200000 kPa, Liquid, Bellows volumetry	1465
452.5 K, 10000 kPa, Liquid, Bellows volumetry	1344
452.5 K, 20000 kPa, Liquid, Bellows volumetry	1351
452.5 K, 30000 kPa, Liquid, Bellows volumetry	1359
452.5 K, 40000 kPa, Liquid, Bellows volumetry	1366
452.5 K, 50000 kPa, Liquid, Bellows volumetry	1372
452.5 K, 60000 kPa, Liquid, Bellows volumetry	1379
452.5 K, 70000 kPa, Liquid, Bellows volumetry	1385
452.5 K, 80000 kPa, Liquid, Bellows volumetry	1391
452.5 K, 90000 kPa, Liquid, Bellows volumetry	1397
452.5 K, 100000 kPa, Liquid, Bellows volumetry	1402
452.5 K, 110000 kPa, Liquid, Bellows volumetry	1408
452.5 K, 120000 kPa, Liquid, Bellows volumetry	1414
452.5 K, 130000 kPa, Liquid, Bellows volumetry	1419
452.5 K, 140000 kPa, Liquid, Bellows volumetry	1423
452.5 K, 150000 kPa, Liquid, Bellows volumetry	1429
452.5 K, 160000 kPa, Liquid, Bellows volumetry	1434
452.5 K, 170000 kPa, Liquid, Bellows volumetry	1439
452.5 K, 180000 kPa, Liquid, Bellows volumetry	1444
452.5 K, 190000 kPa, Liquid, Bellows volumetry	1448
452.5 K, 200000 kPa, Liquid, Bellows volumetry	1453
472.4 K, 10000 kPa, Liquid, Bellows volumetry	1327
472.4 K, 20000 kPa, Liquid, Bellows volumetry	1336
472.4 K, 30000 kPa, Liquid, Bellows volumetry	1344
472.4 K, 40000 kPa, Liquid, Bellows volumetry	1351
472.4 K, 50000 kPa, Liquid, Bellows volumetry	1358
472.4 K, 60000 kPa, Liquid, Bellows volumetry	1364
472.4 K, 70000 kPa, Liquid, Bellows volumetry	1371
472.4 K, 80000 kPa, Liquid, Bellows volumetry	1377
472.4 K, 90000 kPa, Liquid, Bellows volumetry	1383
472.4 K, 100000 kPa, Liquid, Bellows volumetry	1389
472.4 K, 110000 kPa, Liquid, Bellows volumetry	1395
472.4 K, 120000 kPa, Liquid, Bellows volumetry	1400
472.4 K, 130000 kPa, Liquid, Bellows volumetry	1405
472.4 K, 140000 kPa, Liquid, Bellows volumetry	1411
472.4 K, 150000 kPa, Liquid, Bellows volumetry	1416
472.4 K, 160000 kPa, Liquid, Bellows volumetry	1421
472.4 K, 170000 kPa, Liquid, Bellows volumetry	1426
472.4 K, 180000 kPa, Liquid, Bellows volumetry	1431
472.4 K, 190000 kPa, Liquid, Bellows volumetry	1436
472.4 K, 200000 kPa, Liquid, Bellows volumetry	1440
